Results on six molecules are retold here after patent US7642245B2, “Antibacterial compounds having a (pyrrole carboxamide)-(benzamide)-(imidazole carboxamide) motif” (Oscient Pharmaceuticals Corporation, priority 2002, dated 2010).

Molecules are shown by their SMILES. Bounds are passed on as bounds.

In one experiment the test system is S. aureus ATCC 13709. In words: MIC, NCCLS broth microdilution. Format: cell-based, Staphylococcus aureus. Particulars: A = S. aureus ATCC 13709 (MSSA). A digest of the protocol:
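Minimal inhibitory concentration determined by NCCLS broth microdilution in microtiter plates per documents M7-A4, M11-A4 and M27-T. S. aureus ATCC 27660 is a methicillin-resistant strain. The antifungal test on C. albicans followed the method recommended in the Manual of Clinical Microbiology (1995).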

The subject of the next experiment is S. aureus ATCC 27660. In words: MIC, NCCLS broth microdilution. The note with it: B = S. aureus ATCC 27660 (MRSA). Format: cell-based, Staphylococcus aureus. An outline of the steps:
(§1)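 MIC values come from microtiter-plate broth microdilution run to NCCLS standards (M7-A4, M11-A4, M27-T). For C. albicans ATCC 38247, the antifungal procedure of the 1995 Manual of Clinical Microbiology was used instead.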
(Broth dilution looks for growth in wells or tubes with falling amounts of substance.)

For another experiment, the system named is E. faecalis ATCC 29212. In words: MIC, NCCLS broth microdilution. Format: cell-based, Enterococcus faecalis. Particulars: C = E. faecalis ATCC 29212. A digest of the protocol: (§2)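 Compounds were serially diluted in broth and tested against each strain according to NCCLS guidelines, with MIC taken as the endpoint. C. albicans was assayed per the Manual of Clinical Microbiology.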

Another experiment deals with B. cereus ATCC 11778. In words: MIC, NCCLS broth microdilution. Format: cell-based, Bacillus cereus. Particulars: D = B. cereus ATCC 11778. An outline of the steps: as §1
In a further experiment the test system is S. pneumoniae ATCC 49619. In words: MIC, NCCLS broth microdilution. Format: cell-based, Streptococcus pneumoniae. Particulars: E = S. pneumoniae ATCC 49619. An outline of the steps:
as §2

The test system of another experiment is C. albicans ATCC 38247. In words: MIC, antifungal assay. Particulars: F = C. albicans ATCC 38247. Format: cell-based, Candida albicans. A digest of the protocol:
as §1

The test system of another experiment is E. coli ATCC 25922. In words: MIC, NCCLS broth microdilution. Format: cell-based, Escherichia coli. Particulars: G = E. coli ATCC 25922. A digest of the protocol:
as §2

In experiment [1] the test system is M. catarrhalis (ATCC 25238). In words: MIC, NCCLS broth microdilution. Format: cell-based, Moraxella (now Branhamella) catarrhalis. The note with it: H = M. catarrhalis (ATCC 25238). A digest of the protocol:
as §1

On to `Cn1cc(NC(=O)c2cc3ccccc3cn2)cc1C(=O)Nc1ccc(C(=O)Nc2cn(C)c(C(=O)NCCN3CCCCC3CN3CCCC3)n2)cc1` (stereo not drawn) [Compound A-40], for which the “Minimum Inhibitory Concentration (MIC)” value with S. aureus ATCC 13709 was “+++ (MIC ≦ 4 μg/mL)”; with S. aureus ATCC 27660 it was “+++ (MIC ≦ 4 μg/mL)”; with E. faecalis ATCC 29212, “+++ (MIC ≦ 4 μg/mL)”; in the experiment on B. cereus ATCC 11778 it was “+++ (MIC ≦ 4 μg/mL)”; in the experiment on S. pneumoniae ATCC 49619, “+++ (MIC ≦ 4 μg/mL)”; with C. albicans ATCC 38247, greater than 32 µg/mL. The “Minimum Inhibitory Concentration (MIC)” value in the experiment on E. coli ATCC 25922 was greater than 32 µg/mL; in experiment [1], “++ (4 < MIC < 12 μg/mL)”.
With `Cn1cc(NC(=O)c2cc3ccccc3cn2)cc1C(=O)Nc1ccc(C(=O)Nc2cn(C)c(C(=O)NCCNCCO)n2)cc1` [Compound A-45], the “Minimum Inhibitory Concentration (MIC)” value with S. aureus ATCC 13709 was “+++ (MIC ≦ 4 μg/mL)”; in the experiment with S. aureus ATCC 27660, “+++ (MIC ≦ 4 μg/mL)”; with E. faecalis ATCC 29212, “+++ (MIC ≦ 4 μg/mL)”; in the experiment with B. cereus ATCC 11778, “+++ (MIC ≦ 4 μg/mL)”; in the experiment on S. pneumoniae ATCC 49619 it was “+++ (MIC ≦ 4 μg/mL)”; in the experiment on C. albicans ATCC 38247 it was greater than 32 µg/mL. Further, the figures for the “Minimum Inhibitory Concentration (MIC)” value (in the experiment on E. coli ATCC 25922; in experiment [1]) were greater than 32 µg/mL and “+ (12 ≦ MIC ≦ 32 μg/mL)”, respectively.
For the molecule `Cn1cc(NC(=O)c2cc3ccccc3cn2)cc1C(=O)Nc1ccc(C(=O)Nc2cn(C)c(C(=O)NCCN3CCCC3)n2)cc1` [Compound A-16], the “Minimum Inhibitory Concentration (MIC)” value in the experiment on S. aureus ATCC 13709 was “+++ (MIC ≦ 4 μg/mL)”; in the experiment on S. aureus ATCC 27660, “+++ (MIC ≦ 4 μg/mL)”; with E. faecalis ATCC 29212 it was “+++ (MIC ≦ 4 μg/mL)”; in the experiment on B. cereus ATCC 11778, “+++ (MIC ≦ 4 μg/mL)”; with S. pneumoniae ATCC 49619, “+++ (MIC ≦ 4 μg/mL)”; with C. albicans ATCC 38247, greater than 32 µg/mL. Further, the “Minimum Inhibitory Concentration (MIC)” value (with E. coli ATCC 25922; in experiment [1]) was “+++ (MIC ≦ 4 μg/mL)” throughout.
In the case of `Cn1cc(NC(=O)c2cc3ccccc3cn2)cc1C(=O)Nc1ccc(C(=O)Nc2cn(C)c(C(=O)NCCNC3CCCCC3)n2)cc1` [Compound A-35], the “Minimum Inhibitory Concentration (MIC)” value with S. aureus ATCC 13709 was “+++ (MIC ≦ 4 μg/mL)”; with S. aureus ATCC 27660 it was “+++ (MIC ≦ 4 μg/mL)”; with E. faecalis ATCC 29212, “+++ (MIC ≦ 4 μg/mL)”; in the experiment on B. cereus ATCC 11778 it was “+++ (MIC ≦ 4 μg/mL)”; in the experiment with S. pneumoniae ATCC 49619, “+++ (MIC ≦ 4 μg/mL)”; in the experiment with C. albicans ATCC 38247, greater than 32 µg/mL. The “Minimum Inhibitory Concentration (MIC)” value is greater than 32 µg/mL in the experiment with E. coli ATCC 25922 and “++ (4 < MIC < 12 μg/mL)” in experiment [1].
In the case of `Cn1cc(NC(=O)c2cc3c(N)cccc3cn2)cc1C(=O)Nc1ccc(C(=O)Nc2cn(C)c(C(=O)NCCN3CCC(O)CC3)n2)cc1` [Compound A-8], the “Minimum Inhibitory Concentration (MIC)” value with S. aureus ATCC 13709 is “+++ (MIC ≦ 4 μg/mL)”; in the experiment with S. aureus ATCC 27660, “+++ (MIC ≦ 4 μg/mL)”; with E. faecalis ATCC 29212, “+++ (MIC ≦ 4 μg/mL)”; in the experiment on B. cereus ATCC 11778 it was “+++ (MIC ≦ 4 μg/mL)”; in the experiment on S. pneumoniae ATCC 49619 it was “+++ (MIC ≦ 4 μg/mL)”; in the experiment on C. albicans ATCC 38247 it was “++ (4 < MIC < 12 μg/mL)”. Moreover, the “Minimum Inhibitory Concentration (MIC)” value (in the experiment with E. coli ATCC 25922; in experiment [1]) was “++ (4 < MIC < 12 μg/mL)” in each case.
As to `Cn1cc(NC(=O)c2cc3ccccc3cn2)cc1C(=O)Nc1ccc(C(=O)Nc2cn(C)c(C(=O)NCCN3CCC(OC(=O)CNS(=O)(=O)O)CC3)n2)cc1` [Compound A-68], the “Minimum Inhibitory Concentration (MIC)” value is “+++ (MIC ≦ 4 μg/mL)” in the experiment on S. aureus ATCC 13709; “+++ (MIC ≦ 4 μg/mL)” with S. aureus ATCC 27660; “+++ (MIC ≦ 4 μg/mL)” with E. faecalis ATCC 29212; “+++ (MIC ≦ 4 μg/mL)” in the experiment on B. cereus ATCC 11778; “+ (12 ≦ MIC ≦ 32 μg/mL)” with S. pneumoniae ATCC 49619; greater than 32 µg/mL with C. albicans ATCC 38247. In addition, the “Minimum Inhibitory Concentration (MIC)” value (in the experiment with E. coli ATCC 25922; in experiment [1]) was greater than 32 µg/mL throughout.
